According to US8742113B2, “Furanone derivative” (SBI Biotech Co., Ltd., priority 2011, dated 2014):
Read-outs that look alike come from different tables or passages of the source.

How the values were obtained:
[1] = target: human Cdc7/human ASK complex protein (Homo sapiens (Human), UniProt O00311); assay: Inhibitory effect on Cdc7 protein kinase (MSA assay kit); assay type: biochemical
Experimental: [Inhibitory Effect on Cdc7 Protein Kinase]
Measurement of kinase activity was carried out using an MSA assay kit (QuickScout Screening Assist™ Kit, Carna Biosciences, Inc.).
Assay buffer (20 mM HEPES, 0.01% Triton X-100™, 2 mM dithiothreitol, pH 7.5) was used to prepare a substrate mixture solution comprising 4 μM of a kinase-reaction substrate (FITC-labeled MCM2 peptide), 40 mM MgCl2, and 20 μM ATP.
The enzyme supplied in the kit (human Cdc7/human ASK complex protein) was diluted in the assay buffer so as to be at 7 nM, thereby preparing an enzyme solution.
The stock solution of each test compound was diluted in DMSO to prepare diluted DMSO solutions of 10 concentrations (0.00003 mM, 0.0001 mM, 0.0003 mM, 0.001 mM, 0.003 mM, 0.01 mM, 0.03 mM, 0.1 mM, 0.3 mM, 1 mM), each of which was further diluted 25 times in the assay buffer to make a drug solution (a solution containing 4% DMSO).
The kinase reaction was performed in wells of a polypropylene 384-well plate in which 5 μl of each of the drug solutions or of a solvent (assay buffer containing 4% DMSO), 5 μl of the substrate mixture solution, and 10 μl of the enzyme solution were mixed. The assay buffer, instead of the enzyme solution, was added to blank wells. After the reaction at room temperature for 5 hours, 60 μl of the termination buffer supplied in the kit was added to each well to stop the reaction. The percent inhibition of each reaction was determined using a LabChip EZ Reader II system (manufactured by Caliper Life Sciences), according to the protocol provided with the assay kit. In this case, the peak heights of the separated substrate and the phosphorylated substrate were represented as S and P, respectively, and the percent inhibition (%) by a tested compound was calculated according to the following formula: Percent inhibition(%)=(1−(C−A)/(B−A))×100 wherein A denotes P/(P+S) for a blank well, B denotes P/(P+S) for a solvent well, and C denotes P/(P+S) for a compound-added well.
The IC50 value of a tested compound was calculated by regression analysis of the percent inhibition values versus the (logarithmic) concentrations of the tested compound.

[2] = test system: MCM2 phosphorylation in COLO205 cells; assay: Inhibitory effect on MCM2 phosphorylation using cells (Western blot); assay type: cell-based; settings: Homo sapiens, COLO 205, 0.1 μM test compound, 24 hours, class by percent phosphorylation of MCM2, read-out: Test Example 2 Inhibitory effect on MCM2 phosphorylation
Experimental: [Inhibitory Effect on Phosphorylation Using Cells]
COLO205 cells derived from human colon adenocarcinoma (RCB2127, RIKEN BRC) were cultured in 10 cm dishes using RPMI-1640 medium (SIGMA, R8758) supplemented with 10% FCS (Equitech-bio) and 5% penicillin/streptomycin (GIBCO, 15140). After the cells were cultured to a confluence of 70 to 90%, the medium was removed, and the cells were treated with trypsin (2 mL, TrypLE Express, GIBCO, 12604-021) and then harvested using a new medium.
COLO205 cells were seeded in 6-well plates (FALCON, 35046) to 2.5×10^5 cells (1 ml) per well and cultured overnight in a 5% CO2 incubator. A drug solution, which was prepared by adding 1.5 μl of a 0.1-mM stock solution in DMSO of a test compound to 500 μl of medium, was added to each well (to a final drug concentration of 0.1 μM), and then cultured for another 24 hours.
Cells were cultured for 24 hours in the presence of a test compound, harvested using a similar way as described above, washed with PBS, and then pelletized and stored at −80° C. The frozen cells were thawed, subsequently suspended immediately in 2×SDS-PAGE electrophoresis buffer (1×10^5 cells per 10 μl), and heated at 95° C. for 10 minutes, leading to the dissolution and denaturation of the proteins. The resulting sample solutions were subjected to SDS-PAGE using a 5-20% gradient acrylamide gel (e-PAGEL (5-20%), ATTO, E-T520L). After the electrophoresis was completed, the gel was immersed in tris-glycine buffer supplemented with 20% methanol, and the proteins in the gel were transferred onto a PVDF membrane (MILLIPORE, Immobilon-P, IPVH00010) using a semi-dry transfer apparatus (TRNS-BLOT SD SEMI-DRY […] CELL, BIO RAD).
The transferred PVDF membrane was blocked with 5% skim milk (Difco Skim Milk, BD, 232100), and then subjected to reaction with an anti-MCM2 goat antibody (N-19, Santa Cruz, sc-9839) or anti-phosphorylated MCM2 rabbit antibody (S53) (Bethyl, A300-756A) as a primary antibody and additionally with an anti-α tubulin mouse antibody (Clone DM 1A, SIGMA, 9026) as an internal control. Each band was detected by chemiluminescence using an HRP-labeled anti-goat IgG donkey antibody (Santa Cruz, sc2020), anti-rabbit IgG sheep antibody (Roche, 12015218001), or anti-mouse IgG donkey antibody (Jackson ImmunoResearch, 715-035-151) as a secondary antibody. The combinations of and the diluted concentrations of the primary and secondary antibodies were as indicated below.
The bands which were detected were normalized using the amount of endogenous α-tubulin as a reference, and the percent phosphorylation of MCM2 was calculated for each of the tested compounds. Their inhibitory effects on MCM2 phosphorylation were indicated by a triple asterisk (***) in the case where the percent phosphorylation of MCM2 was less than 20%, by a dual asterisk (**) in the case where the percent phosphorylation of MCM2 was not less than 20% and less than 50%, and by a single asterisk (*) in the case where the percent phosphorylation of MCM2 was not less than 50% and less than 70%.

[3] = human Cdc7/human ASK complex, FITC-labeled MCM2 peptide substrate, reaction 5 hours at room temperature, read-out: Test Example 1 Cdc7 IC50 value

Sequence of human Cdc7/human ASK complex protein (O00311 whole entry): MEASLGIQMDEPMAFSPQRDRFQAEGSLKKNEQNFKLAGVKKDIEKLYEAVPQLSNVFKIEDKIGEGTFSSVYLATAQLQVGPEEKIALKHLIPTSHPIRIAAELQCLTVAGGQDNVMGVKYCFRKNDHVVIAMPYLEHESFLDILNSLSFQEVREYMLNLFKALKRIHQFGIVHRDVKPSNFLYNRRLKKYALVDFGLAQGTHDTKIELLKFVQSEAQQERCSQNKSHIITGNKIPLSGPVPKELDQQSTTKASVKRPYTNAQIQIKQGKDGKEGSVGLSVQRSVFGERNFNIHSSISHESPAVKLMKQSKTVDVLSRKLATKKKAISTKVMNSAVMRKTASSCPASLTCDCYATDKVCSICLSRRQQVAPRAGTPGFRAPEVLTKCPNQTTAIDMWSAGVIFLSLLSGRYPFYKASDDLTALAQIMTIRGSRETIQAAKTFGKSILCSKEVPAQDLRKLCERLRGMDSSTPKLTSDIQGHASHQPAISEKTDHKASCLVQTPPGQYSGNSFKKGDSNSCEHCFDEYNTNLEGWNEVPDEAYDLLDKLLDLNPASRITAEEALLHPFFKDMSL
Sequence of human Cdc7/human ASK complex protein (Q9UBU7 whole entry partner): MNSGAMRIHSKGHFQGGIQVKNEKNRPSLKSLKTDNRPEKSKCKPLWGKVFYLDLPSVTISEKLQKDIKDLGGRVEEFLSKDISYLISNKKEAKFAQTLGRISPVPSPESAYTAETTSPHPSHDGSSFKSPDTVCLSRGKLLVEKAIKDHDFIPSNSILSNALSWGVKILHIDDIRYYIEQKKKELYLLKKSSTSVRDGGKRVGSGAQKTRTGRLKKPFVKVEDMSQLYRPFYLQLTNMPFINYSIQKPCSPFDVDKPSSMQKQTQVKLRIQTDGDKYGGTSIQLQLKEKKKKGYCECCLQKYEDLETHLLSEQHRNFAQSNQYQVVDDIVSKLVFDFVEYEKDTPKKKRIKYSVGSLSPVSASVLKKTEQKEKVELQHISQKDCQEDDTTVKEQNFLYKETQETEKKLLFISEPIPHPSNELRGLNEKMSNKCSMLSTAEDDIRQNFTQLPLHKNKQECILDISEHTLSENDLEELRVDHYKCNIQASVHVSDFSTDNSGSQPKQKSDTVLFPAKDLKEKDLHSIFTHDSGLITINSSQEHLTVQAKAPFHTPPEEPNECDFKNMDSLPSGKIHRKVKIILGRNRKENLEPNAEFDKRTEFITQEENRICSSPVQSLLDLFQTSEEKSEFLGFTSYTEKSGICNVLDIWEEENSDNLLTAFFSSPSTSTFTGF

Row | SMILES | IC50 [1, 3] | inhibition at 0.1 µM [2] | IC50 [1]
1 | CCOC(=O)C1=C(Nc2ccccc2Cl)O/C(=C\c2c[nH]c3ncccc23)C1=O [Example 15, Ethyl 5-[(1H-pyrrolo[2,3-b]pyridin-3-yl)methylene]-2-[(2-chlorophenyl)amino]-4-oxo-4,5-dihydrofuran-3-carboxylate] | 2 nM | 20 to 50% | –
2 | O=C(O)C1=C(Nc2ccccc2)O/C(=C\c2c[nH]c3ncccc23)C1=O [Example 22, 5-[(1H-Pyrrolo[2,3-b]pyridin-3-yl)methylene]-4-oxo-2-(phenylamino)-4,5-dihydrofuran-3-carboxylic acid] | – | 50 to 70% | –
3 | CCOC(=O)C1=C(N2CCCCCC2)O/C(=C\c2c[nH]c3ncccc23)C1=O [Example 63] | – | < 20% | –
4 | CCOC(=O)C1=C(Nc2ccc3cn[nH]c3c2)O/C(=C\c2c[nH]c3ncccc23)C1=O [Example 68, Ethyl 5-[(1H-pyrrolo[2,3-b]pyridin-3-yl)methylene]-2-[(6-indazolyl)amino]-4-oxo-4,5-dihydrofuran-3-carboxylate] | 4 nM | < 20% | –
5 | CCOC(=O)C1=C(N2CCC(C)CC2)O/C(=C\c2c[nH]c3ncccc23)C1=O [Example 78, Ethyl 5-[(1H-pyrrolo[2,3-b]pyridin-3-yl)methylene]-2-(4-methylpiperidino)-4-oxo-4,5-dihydrofuran-3-carboxylate] | 11 nM | < 20% | –
6 | CCOC(=O)C1=C(Nc2ccc(OCCO)cc2F)OC(=Cc2c[nH]c3ncccc23)C1=O [Example 81, Ethyl 5-[(1H-pyrrolo[2,3-b]pyridin-3-yl)methylene]-2-{[2-fluoro-4-(2-hydroxyethoxy)phenyl]amino}-4-oxo-4,5-dihydrofuran-3-carboxylate] | 5 nM | < 20% | –
7 | O=C(OCCCO)C1=C(Nc2ccc(F)cc2)O/C(=C\c2c[nH]c3ncccc23)C1=O [Example 89, 3-Hydroxypropyl 5-[(1H-pyrrolo[2,3-b]pyridin-3-yl)methylene]-2-[(4-fluorophenyl)amino]-4-oxo-4,5-dihydrofuran-3-carboxylate] | 3 nM | < 20% | –
8 | CN(C)CCOC(=O)C1=C(Nc2ccc(F)cc2F)O/C(=C\c2c[nH]c3ncccc23)C1=O [Example 91, 2-(Dimethylamino)ethyl 5-[(1H-pyrrolo[2,3-b]pyridin-3-yl)methylene]-2-[(2,4-difluorophenyl)amino]-4-oxo-4,5-dihydrofuran-3-carboxylate] | 4 nM | < 20% | –
9 | CCOC(=O)C1=C(N2CCc3ccccc3C2)O/C(=C\c2c[nH]c3ncccc23)C1=O [Example 102, Ethyl 5-[(1H-pyrrolo[2,3-b]pyridin-3-yl)methylene]-2-(3,4-dihydroisoquinolin-2(1H)-yl)-4-oxo-4,5-dihydrofuran-3-carboxylate] | 4 nM | < 20% | –
10 | CCOC(=O)C1=C(Nc2ccc(NCCO)cc2C)O/C(=C\c2c[nH]c3ncccc23)C1=O [Example 126, Ethyl 5-[(1H-pyrrolo[2,3-b]pyridin-3-yl)methylene]-2-({4-[(2-hydroxyethyl)amino]-2-methylphenyl}amino)-4-oxo-4,5-dihydrofuran-3-carboxylate] | 3 nM | < 20% | –
11 | CCOC(=O)C1=C(Nc2ccc(CN(C)C)cc2C)O/C(=C\c2c[nH]c3ncccc23)C1=O [Example 129, Ethyl 5-[(1H-pyrrolo[2,3-b]pyridin-3-yl)methylene]-2-({4-[(dimethylamino)methyl]-2-methylphenyl}amino)-4-oxo-4,5-dihydrofuran-3-carboxylate] | 9 nM | < 20% | –
12 | CCOC(=O)C1=C(NN2CCOCC2)O/C(=C\c2c[nH]c3ncccc23)C1=O [Example 142, Ethyl 5-[(1H-pyrrolo[2,3-b]pyridin-3-yl)methylene]-2-(morpholinoamino)-4-oxo-4,5-dihydrofuran-3-carboxylate] | 3 nM | 20 to 50% | –
13 | Cc1cc(OCCO)ccc1NC1=C(C(=O)OC(C)C)C(=O)/C(=C/c2c[nH]c3ncccc23)O1 [Example 157, Isopropyl 5-[(1H-pyrrolo[2,3-b]pyridin-3-yl)methylene]-2-{[4-(2-hydroxyethoxy)-2-methylphenyl]amino}-4-oxo-4,5-dihydrofuran-3-carboxylate] | 3 nM | 20 to 50% | –
14 | COCCOC(=O)C1=C(Nc2ccccc2Cl)O/C(=C\c2c[nH]c3ncccc23)C1=O [Example 173, 2-Methoxyethyl 5-[(1H-pyrrolo[2,3-b]pyridin-3-yl)methylene]-2-[(2-chlorophenyl)amino]-4-oxo-4,5-dihydrofuran-3-carboxylate] | 3 nM | < 20% | –
15 | O=C1C=C(NC2CCCCCC2)O/C1=C\c1c[nH]c2ncccc12 [Example 226, 2-[(1H-Pyrrolo[2,3-b]pyridin-3-yl)methylene]-5-(cycloheptylamino)furan-3(2H)-one] | 4 nM | < 20% | –
16 | Cc1cc(F)ccc1NC1=CC(=O)/C(=C/c2c[nH]c3ncccc23)O1 [Example 233, 2-[(1H-Pyrrolo[2,3-b]pyridin-3-yl)methylene]-5-[(4-fluoro-2-methylphenyl)amino]furan-3(2H)-one] | 2 nM | 20 to 50% | –
17 | O=C1C=C(Nc2ccc3[nH]ncc3c2)O/C1=C\c1c[nH]c2ncccc12 [Example 239, 2-[(1H-Pyrrolo[2,3-b]pyridin-3-yl)methylene]-5-[(5-indazolyl)amino]furan-3(2H)-one] | – | 20 to 50% | 1 nM
18 | Cc1ccsc1CNC1=CC(=O)/C(=C/c2c[nH]c3ncccc23)O1 [Example 242, 2-[(1H-Pyrrolo[2,3-b]pyridin-3-yl)methylene]-5-{[(3-methyl-2-thienyl)methyl]amino}furan-3(2H)-one] | – | < 20% | 1 nM
19 | CCOC(=O)C1=C(N2CCc3ccc(OC)cc3C2)O/C(=C\c2c[nH]c3ncccc23)C1=O [Example 244, Ethyl 5-[(1H-pyrrolo[2,3-b]pyridin-3-yl)methylene]-2-(7-methoxy-3,4-dihydroisoquinolin-2(1H)-yl)-4-oxo-4,5-dihydrofuran-3-carboxylate] | 4 nM | < 20% | –
